Measurements from patent publication US6723364B1, “Fog treatment method using a liquid composition for treating fruits and vegetables and implementing device” (Xeda International, priority 1998, dated 2004).
In brackets after ≈: the same amount, converted by molar mass.

Columns and labels:
Escherichia coli = experiment: Bactericidal activity in vitro in LB agar medium; format: cell-based; settings: Escherichia sp., 37° C., read-out: MIC (concentration needed to completely inhibit the growth of the bacteria)
Method: The bactericidal activity of eugenol and isoeugenol was evaluated in vitro and compared with that of other terpenes.
The culture medium used is the following LB medium:
Bactotryptone: 1% by weight
Yeast extract: 0.5% by weight
A suspension of bacteria at 10^6 CFU/ml was prepared in sterilized water from the LB medium. 200 μl of this bacterial suspension were added to 20 ml of presterilized LB culture medium brought to 55° C. The tested terpene is then added to the culture medium. After agitation, the medium is immediately divided among Petri dishes. The medium solidifies on cooling.
Incubation is carried out at 28° C. when the bacterium is Erwinia carotovora and at 37° C. when the bacterium is Escherichia coli.
The growth of mould in the culture medium is observed. The same experiment is carried out in the absence of terpene (control experiment).
The protocol used is that described above.

Geocrichum candidum = experiment: Fungicidal activity in vitro: mycelial growth on Cristomalt agar; format: cell-based; settings: GC; for Inhibition grades: MIC expressed on the scale of Table 2; for MIC: min-max range of several experiments, 22° C., read-out: MIC (content giving complete inhibition of mycelial growth)
Method: (§1) The Cristomalt medium used for the evaluations of the fungicidal activities comprises 0.1% of Cristomalt (malt extract) and 0.2% of agar.
(§2) This culture medium is, after sterilization, brought to 55° C. The terpene compound tested is then introduced in the pure form into the culture medium under warm conditions. Immediately after agitating, the medium, enriched with the terpene product, is poured into Petri dishes (diameter 9 cm, filled with 20 ml of medium). The agar-comprising medium solidifies on cooling. The Petri dishes are then inoculated with plugs, with a diameter of 6 mm, withdrawn from the edge of a culture of the tested fungus, which culture is obtained on Cristomalt medium.
(§3) Inoculation is carried out at 22° C.
(§4) The mycelial growth was determined periodically (5 to 15 days, according to the species of fungus).
(§5) The results are expressed in Table 3 below in terms of MIC, which is the content (in μg/ml) which makes it possible to obtain complete inhibition of mycelial growth.
(§6) In f act, each experiment was carried out several times, so that, for each terpene and for each species of fungus, a minimum value and a maximum value were obtained.

Phytophtora parasitica = experiment: as above; format: cell-based; settings: PhP; for Inhibition grades: MIC expressed on the scale of Table 2; for MIC: min-max range of several experiments, 22° C., read-out: MIC (content giving complete inhibition of mycelial growth)
Method: as §1, §2, §3, §4, §5, §6

Fusarium oxysporum = experiment: as above; format: cell-based; settings: for MIC: Fusarium oxysporum, FO, min-max range of several experiments, 22° C., read-out: MIC (content giving complete inhibition of mycelial growth); for Inhibition grades: OF, MIC expressed on the scale of Table 2
Method: as §1, §2, §3, §4, §5, §6

Penicillium digitatum = experiment: as above; format: cell-based; settings: PD; for Inhibition grades: MIC expressed on the scale of Table 2; for MIC: Penicillium digitatum, min-max range of several experiments, 22° C., read-out: MIC (content giving complete inhibition of mycelial growth)
Method: as §1, §2, §3, §4, §5, §6

Gliocladium roseum = experiment: as above; format: cell-based; settings: GR; for MIC: Clonostachys rosea, min-max range of several experiments, 22° C., read-out: MIC (content giving complete inhibition of mycelial growth); for Inhibition grades: MIC expressed on the scale of Table 2
Method: as §1, §2, §3, §4, §5, §6

Botrytis cinerea = experiment: as above; format: cell-based; settings: BC; for Inhibition grades: MIC expressed on the scale of Table 2; for MIC: Botrytis cinerea, min-max range of several experiments, 22° C., read-out: MIC (content giving complete inhibition of mycelial growth)
Method: as §1, §2, §3, §4, §5, §6

Penicillium expansum = experiment: as above; format: cell-based; settings: PE; for Inhibition grades: MIC expressed on the scale of Table 2; for MIC: Penicillium expansum, min-max range of several experiments, 22° C., read-out: MIC (content giving complete inhibition of mycelial growth)
Method: as §1, §2, §3, §4, §5, §6

Alternaria alternata = experiment: as above; format: cell-based; settings: AA; for Inhibition grades: MIC expressed on the scale of Table 2; for MIC: Alternaria alternata, min-max range of several experiments, 22° C., read-out: MIC (content giving complete inhibition of mycelial growth)
Method: as §1, §2, §3, §4, §5, §6

[1] = system: Phlyctaena vagabonda (“Gloeosporium”); experiment: as above; format: cell-based; settings: PV; for Inhibition grades: MIC expressed on the scale of Table 2; for MIC: min-max range of several experiments, 22° C., read-out: MIC (content giving complete inhibition of mycelial growth)
Method: as §1, §2, §3, §4, §5, §6

[2] = system: species of fungus (AA, BC, FO, GC, GR, PD, PE, PV, PhP); experiment: Fungicidal activity in vitro: total of inhibition grades over the nine species of fungus; format: cell-based; settings: sum of the grades over the nine fungi
Method: as §1, §2, §3, §4
The results obtained are analysed simply by using the assessment scale illustrated in Table 2:
The results obtained have been expressed in Table 3 using the scale in Table 2.

potato tubers = experiment: Sprouting-inhibiting treatment of potato tubers by thermal fogging; format: in vivo; settings: after 5 months; cold room 8 to 9° C.; 45 g/tonne then 15 g/tonne every 20 days by thermal fogging
Method: The effectiveness of eugenol and of isoeugenol in the sprouting-inhibiting treatment of potato tubers was evaluated and compared with that of other terpenes.
The following compositions were used in the case of eucalyptol, eugenol, isoeugenol, limonene, safrole and terpineol:
60% by weight of terpene;
7% by weight of a nonionic emulsifier;
33% by weight of butyl acetate.
In the case of L-carvone, the following composition was employed:
30% by weight of L-carvone;
10% by weight of ethanol;
5% by weight of nonionic emulsifier;
35% by weight of propylene glycol.
Isopropyl chlorophenylcarbamate (CIPC) is a compound used in the art as sprouting inhibitor for potato tubers. Its activity was compared with that of eugenol and of isoeugenol.
The composition based on isopropyl chloro-phenylcarbamate has the following formulation: […]
20% by weight of isopropyl chlorophenyl-carbamate;
50% by weight of propylene glycol;
10% by weight of nonionic emulsifier;
Each of the compositions tested was applied by thermal fogging. The temperature at the outlet of the thermal fogging device was 240° C., except in the case of the compositions based on L-carvone and on CIPC, where it was 180° C.
The amount of composition which has to be applied is calculated in each case so as to obtain an equivalent concentration of active material on the potato tubers.
In this example, repeated applications were carried out by following the following protocol:
45 g/tonne of tubers at the beginning of storage;
15 g/tonne of tubers every 20 days; so that, after 6 months, 165 g of active principle have been applied per tonne of tubers.
During storage, the tubers were stored in a cold room at a temperature of 8 to 9° C.

Row | Structure (SMILES) | MIC (Escherichia coli) [µg/mL] | Inhibition grades (Geocrichum candidum) | MIC (Geocrichum candidum) [µg/mL] | Inhibition grades (Phytophtora parasitica) | MIC (Phytophtora parasitica) [µg/mL] | MIC (Fusarium oxysporum) [µg/mL] | Inhibition grades (Fusarium oxysporum) | Inhibition grades (Penicillium digitatum) | MIC (Penicillium digitatum) [µg/mL] | MIC (Gliocladium roseum) [µg/mL] | Inhibition grades (Gliocladium roseum) | Inhibition grades (Botrytis cinerea) | MIC (Botrytis cinerea) [µg/mL] | Inhibition grades (Penicillium expansum) | MIC (Penicillium expansum) [µg/mL] | Inhibition grades (Alternaria alternata) | MIC (Alternaria alternata) [µg/mL] | Inhibition grades [1] | MIC [1] [µg/mL] | Total of the degrees of inhibition [2] | other results
1 | CC=Cc1ccc(O)c(OC)c1 [ISOEUGENOL, isoeugenol] | 40 to 80 (≈ 244 to 487 µM) | 8 (10-20) | 10 to 20 (≈ 60.9 to 122 µM) | 7 (20-40) | 20 to 40 (≈ 122 to 244 µM) | 20 to 40 (≈ 122 to 244 µM) | 7 (20-40) | 7 (20-40) | 20 to 40 (≈ 122 to 244 µM) | 20 to 40 (≈ 122 to 244 µM) | 7 (20-40) | 7 (20-40) | 20 to 40 (≈ 122 to 244 µM) | 7 (20-40) | 20 to 40 (≈ 122 to 244 µM) | 7 (20-40) | 20 to 40 (≈ 122 to 244 µM) | 7 (20-40) | 20 to 40 (≈ 122 to 244 µM) | 64 | Loss in weight of the tubers (potato tubers): 2.7%; Total weight of the sprouts >2 mm (potato tubers): 8.5 g; Tubers at the white point stage (potato tubers): 22.6%; Tubers with sprouts 2 to 5 mm (potato tubers): 10.6%; Tubers with sprouts <2 mm (potato tubers): 56.8%; Tubers with sprouts >2 mm (potato tubers): 14.4%; Tubers with sprouts >5 mm (potato tubers): 3.8%; Unsprouted tubers (potato tubers): 6.2%
2 | CC12CCC(CC1)C(C)(C)O2 [EUCALYPTOL, eucalyptol] | > 640 | 3 (320-640) | 320 to 640 (≈ 2070 to 4150 µM) | 3 (320-640) | 320 to 640 (≈ 2070 to 4150 µM) | 640 to 1280 (≈ 4150 to 8300 µM) | 2 (640-1280) | 1 (>1280) | > 1280 | 320 to 640 (≈ 2070 to 4150 µM) | 3 (320-640) | 2 (640-1280) | 640 to 1280 (≈ 4150 to 8300 µM) | 1 (>1280) | > 1280 | 1 (>1280) | > 1280 | 4 (160-320) | 160 to 320 (≈ 1040 to 2070 µM) | 20 | Loss in weight of the tubers (potato tubers): 3.2%; Total weight of the sprouts >2 mm (potato tubers): 46.2 g; Tubers at the white point stage (potato tubers): 10.2%; Tubers with sprouts 2 to 5 mm (potato tubers): 36.3%; Tubers with sprouts <2 mm (potato tubers): 26.7%; Tubers with sprouts >2 mm (potato tubers): 58.4%; Tubers with sprouts >5 mm (potato tubers): 22.4%; Unsprouted tubers (potato tubers): 4.4%
